Laboratory results taken from paper PMC7790557, “Pleiotropic Properties of Amphiphilic Dihydropyridines, Dihydropyridones, and Aminovinylcarbonyl Compounds” (Oxidative Medicine and Cellular Longevity, 2020).
Like-named read-outs stand apart in the source and are kept apart here.

What was measured:
NIH3T3 = assay: in vitro; settings: for LD50 (calculated, NIH3T3): mouse
Description: Data from the in vitro tests were used for estimating the starting dose for acute oral systemic toxicity tests in the rodent. The in vivo starting dose is an estimated LD50 value calculated by inserting the in vitroIC50 value into a regression formula: log LD50 (mM/kg) = 0.439 log IC50 (mM) + 0.621 [23–25]. […] Using an alternative in vitro method allows the comparison between possibly toxic new compounds and selecting compounds for further study vastly reducing the number of animal experiments.
Additionally, the compound influence on “normal” mouse fibroblasts (NIH3T3) was estimated for the studies of structure-activity relationships and exploration of the effect of substituents.

MH-22A (mouse hepatoma) [1] = assay: Cytotoxicity, crystal violet (CV) assay, MH-22A; type: cell-based; settings: Mus musculus, 72 h exposure, read-out: MH-22A IC50 (CV)
Experimental: After incubation, the staining solution was removed. The cells were washed 4 times with water.

MH-22A (mouse hepatoma) [2] = assay: Cytotoxicity, MTT assay, MH-22A; type: cell-based; settings: 72 h exposure; for IC50: Mus musculus, read-out: MH-22A IC50 (MTT)
Description: (§1) Reduction takes place only when mitochondrial reductase enzymes are active, and therefore, conversion is directly related to the number of viable cells which can be quantified by the absorbance of the solution (between λ = 500 and 600 nm) using a spectrophotometer.

[3] = test system: HT-1080 (human lung fibrosarcoma); assay: Cytotoxicity, crystal violet (CV) assay, HT-1080; settings: Homo sapiens, HT-1080, 72 h, read-out: HT-1080 IC50 (CV)
Experimental: IC50 is the compound concentration (μg/ml) at which 50% of the cells die. […] CV staining can be used to quantify the total DNA of the remaining population and thus is used to determine the number of live cells based on the concentration of the dye which remains after staining.
Tumor cell lines HT-1080 (human connective tissue fibrosarcoma, ATCC® CCL-121™) and MH-22A (mouse hepatocarcinoma, ECACC, cat. Nr. 96121721) were used.
HT-1080 and MH-22A cells were seeded in 96-well plates in Dulbecco's modified Eagle's (DMEM) medium containing 10% fetal bovine serum and 4 mM L-glutamine, without antibiotics, and cultivated for 72 h by exposure to different concentrations of compounds. Cell viability was measured using 3-(4,5-dimethylthiazol-2-yl)-2,5-diphenyltetrazolinium bromide (MTT). In brief, after incubating with compounds, the culture medium was removed and fresh medium with 0.2 mg/ml MTT was added in each well of the plate. After incubation (3 h, 37°C, 5% CO2), the medium with MTT was removed, and 200 μl DMSO was added at once to each sample. The samples were tested at 540 nm on a Tecan Infinite M1000 multiplate reader. The IC50 was calculated using the program GraphPad Prism® 3.0.
For the CV assay, cells were stained with 0.05% crystal violet (Sigma-Aldrich) in 30% methanol for 20 minutes at room temperature. After incubation, the staining solution was removed. The cells were washed 4 times with water. For dye solubilization, 200 μl of a solubilizing solution (0.1 M citrate buffer, pH 4.2 in 50% ethanol; 1 : 1 v/v) was added. The absorbance of the solution was measured using a Tecan Infinite M1000 multiplate spectrophotometer at a wavelength of 570 nm [21].

[4] = test system: HT-1080 (human lung fibrosarcoma); assay: Cytotoxicity, MTT assay, HT-1080; type: cell-based; settings: 72 h exposure; for IC50: Homo sapiens, HT-1080, read-out: HT-1080 IC50 (MTT)
Description: as §1

[5] = test system: NIH3T3 (mouse embryonic fibroblast); assay: Basal cytotoxicity test, Neutral Red Uptake (NRU) assay; settings: for IC50: Mus musculus, NIH3T3, 24 h
Experimental: The NRU cytotoxicity assay procedure is based on the ability of viable cells to incorporate and bind neutral red, a supravital dye.
Balb/c NIH 3T3 (mouse Swiss albino embryo fibroblast, ATCC® CRL-1658™) cells (9000 cells/well) were placed into 96-well plates for 24 h in Dulbecco's modified Eagle's medium (DMEM) containing 5% fetal bovine serum. Then, the cells were exposed to the test compound over a range of seven concentrations (1000, 316, 100, 31, 10, 3, and 1 μg/ml) for 24 h. Untreated cells were used as a control. After 24 h, the medium was removed from all plates. Then, 150 μl of neutral red solution was added (0.05 mg/ml NR in DMEM 24 h preincubated at 37°C and then filtered before use through a 0.22 μm syringe filter). Plates were incubated for 3 h, and then, the cells were washed three times with PBS. The dye within viable cells was released by extraction with a mixture of acetic acid, ethanol, and water (1 : 50 : 49). The absorbance of neutral red was measured using a spectrophotometer multiplate reader (Tecan Infinite M1000) at 540 nm. The optical density (OD) was calculated using the following formula: OD (treated cells) × 100/OD (control cells). The IC50 values were calculated using the GraphPad Prism® 3.0 program.

[6] = read-out: NIH3T3 IC50 (NR), Table 2, 24 h exposure

Molecule | IC50 (MH-22A (mouse hepatoma) [2]; Table 1) [µg/mL] | IC50 [3] [µg/mL] | IC50 ([4]; Table 1) [µg/mL] | IC50 ([5]; read-out: NIH3T3 IC50 (NR)) [µg/mL] | IC50 (MH-22A (mouse hepatoma) [1]; Table 2) [µg/mL] | IC50 (MH-22A (mouse hepatoma) [2]; Table 2) [µg/mL] | IC50 ([4]; Table 2) [µg/mL] | IC50 [5, 6] [µg/mL] | also measured
CCOC(=O)C1=C(C[n+]2ccc(C)cc2)NC(C[n+]2ccc(C)cc2)=C(C(=O)OCC)C1c1ccccc1.[Br-].[Br-] [compound 2, 1,1'-((3,5-Bis(ethoxycarbonyl)-4-phenyl-1,4-dihydropyridine-2,6-diyl)bis(methylene))-bis(4-methylpyridin-1-ium) dibromide] | > 100 | > 100 | > 740 | > 1000 |  |  |  |  | LD50 (calculated, NIH3T3) (NIH3T3): > 2000 mg/kg; IC50 (MH-22A (mouse hepatoma) [1]; Table 1): > 100 µg/mL
CCOC(=O)C1=C(C[n+]2cccc(C)c2)NC(C[n+]2cccc(C)c2)=C(C(=O)OCC)C1c1ccccc1.[Br-].[Br-] [compound 5, 1,1'-((3,5-Bis(ethoxycarbonyl)-4-phenyl-1,4-dihydropyridine-2,6-diyl)bis(methylene))-bis(3-methylpyridin-1-ium) dibromide] | > 100 |  | > 740 | > 1000 |  |  |  |  | LD50 (calculated, NIH3T3) (NIH3T3): > 2000 mg/kg
O=C1CC(c2ccccc2)C(C(=O)OCCCCC(F)(F)C(F)(F)C(F)(F)C(F)(F)C(F)(F)C(F)(F)C(F)(F)C(F)(F)F)=C(C[n+]2ccccc2)N1.[O-][Cl+3]([O-])([O-])[O-] (centres unmarked) [compound 32, 1-((3-(((5,5,6,6,7,7,8,8,9,9,10,10,11,11,12,12,12-Heptadecafluorododecyl)oxy)carbonyl)-6-oxo-4-phenyl-1,4,5,6-tetrahydropyridin-2-yl)methyl)pyridin-1-ium perchlorate] |  | 3 ± 0.3 |  |  | 2 ± 0.3 | 3 ± 0.2 | 3 ± 0.5 | 15 ± 3 | 
CCCCCCCCCCCCOC(=O)C1=C(C[n+]2ccc(C)cc2)NC(C[n+]2ccc(C)cc2)=C(C(=O)OCCCCCCCCCCCC)C1c1ccc(O)cc1.[Br-].[Br-] [compound 19, 1,1'-((3,5-Bis((dodecyloxy)carbonyl)-4-(4-hydroxyphenyl)-1,4-dihydropyridine-2,6-diyl)bis(methylene))bis(4-methylpyridin-1-ium) dibromide] | 30 ± 8 | 32 ± 8 | 22 ± 5 | 44 ± 11 |  |  |  |  | IC50 (MH-22A (mouse hepatoma) [1]; Table 1): 21 ± 3 µg/mL
CCCCCCCCCCCC[N+](C)(C)CC1=C(C(=O)OCCCCC(F)(F)C(F)(F)C(F)(F)C(F)(F)C(F)(F)C(F)(F)C(F)(F)C(F)(F)F)C(c2ccccc2)CC(=O)N1 (centres unmarked) [compound 35, N-((3-((5,5,6,6,7,7,8,8,9,9,10,10,11,11,12,12,12-Heptadecafluorododecyloxy)carbonyl)-6-oxo-4-phenyl-1,4,5,6-tetrahydropyridin-2-yl)methyl-N,N-dimethyldodecan-1-aminium bromide] |  | 3 ± 0.3 |  |  | 26 ± 6 | 30 ± 8 | 30 ± 11 | 27 ± 9 | 
CCCCCCCCCCCCOC(=O)C1=C(C[N+](C)(C)CCCCCCCCCCCC)NC(=O)CC1 [compound 37, N-((3-(dodecyloxycarbonyl)-6-oxo-1,4,5,6-tetrahydropyridin-2-yl)methyl-N,N-dimethyldodecan-1-aminium bromide] |  | 2 ± 0.5 |  |  | 3 ± 0.6 | 1 ± 0.2 | 3 ± 0.4 | 7 ± 1 | 
CCCCCCCCCCCC[N+](C)(C)CC1=C(C(=O)OC)C(c2ccccc2)CC(=O)N1 (centres unmarked) [compound 33, N-((3-(methyloxycarbonyl)-6-oxo-4-phenyl-1,4,5,6-tetrahydropyridin-2-yl)methyl-N,N-dimethyldodecan-1-aminium bromide] |  | 2 ± 0.4 |  |  | 2 ± 0.1 | 2 ± 0.6 | 1 ± 0.2 | 4 ± 1 | 
CCOC(=O)C1=C(C[n+]2ccc(N)cc2)NC(C[n+]2ccc(N)cc2)=C(C(=O)OCC)C1c1ccccc1.[Br-].[Br-] [compound 3, 1,1'-((3,5-Bis(ethoxycarbonyl)-4-phenyl-1,4-dihydropyridine-2,6-diyl)bis(methylene))-bis(4-aminopyridin-1-ium) dibromide] | > 740 |  | 441 ± 46 | > 1000 |  |  |  |  | LD50 (calculated, NIH3T3) (NIH3T3): > 2000 mg/kg
CCCCCCCCCCCCOC(=O)C1=C(C[N+](C)(C)CCCCCCCCCCCC)NC(=O)CC1c1ccccc1 (centres unmarked) [compound 34, N-((3-(dodecyloxycarbonyl)-6-oxo-4-phenyl-1,4,5,6-tetrahydropyridin-2-yl)methyl-N,N-dimethyldodecan-1-aminium bromide] |  | 2 ± 0.2 |  |  | 3 ± 0.8 | < 1 | 2 ± 0.6 | 6 ± 2 | 
CCCCCCCCCCCCOC(=O)C1=C(C[n+]2ccccc2)NC(C[n+]2ccccc2)=C(C(=O)OCCCCCCCCCCCC)C1c1ccc(O)cc1.[Br-].[Br-] [compound 18, 1,1'-((3,5-Bis((dodecyloxy)carbonyl)-4-(4-hydroxyphenyl)-1,4-dihydropyridine-2,6-diyl)bis(methylene))bis(pyridin-1-ium) dibromide] | 16 ± 2 | 4.3 ± 0.6 | 10 ± 2 | 95 ± 7 |  |  |  |  | IC50 (MH-22A (mouse hepatoma) [1]; Table 1): 3.4 ± 0.6 µg/mL
CCCCCCCCCCCCOC(=O)C1=C(C[N+](C)(C)CCCCCCCCCCCC)NC(C[N+](C)(C)CCCCCCCCCCCC)=C(C(=O)OCCCCCCCCCCCC)C1c1ccccc1.[O-][Cl+3]([O-])([O-])[O-].[O-][Cl+3]([O-])([O-])[O-] [compound 20, N,N'-((3,5-bis((dodecyloxy)carbonyl)-4-phenyl-1,4-dihydropyridine-2,6-diyl)bis(methylene))bis(N,N-dimethyldodecan-1-aminium) diperchlorate] | 10 ± 2 | 3 ± 0.3 | 3 ± 0.4 |  |  |  |  |  | IC50 (MH-22A (mouse hepatoma) [1]; Table 1): 10 ± 2 µg/mL; IC50 ([5]; read-out: NIH3T3 IC50 (NR), Table 1, 24 h exposure): 19 ± 6 µg/mL
CCCOCOC(=O)C1=C(C[n+]2ccccc2)NC(C[n+]2ccccc2)=C(C(=O)OCOCCC)C1c1ccccc1OC(F)F.[Br-].[Br-] [compound 7, 1,1'-((4-(2-(Difluoromethoxy)phenyl)-3,5-bis((propoxymethoxy)carbonyl)-1,4-dihydropyridine-2,6-diyl)bis(methylene))bis(pyridin-1-ium) dibromide] | > 100 | > 100 | > 100 | > 1000 |  |  |  |  | LD50 (calculated, NIH3T3) (NIH3T3): > 2000 mg/kg; IC50 (MH-22A (mouse hepatoma) [1]; Table 1): > 100 µg/mL
O=C1CC(c2ccccc2)C(C(=O)OCCCCC(F)(F)C(F)(F)C(F)(F)C(F)(F)C(F)(F)C(F)(F)C(F)(F)C(F)(F)F)=C(C[n+]2ccccc2)N1.[Br-] (centres unmarked) [compound 31, 1-((3-(((5,5,6,6,7,7,8,8,9,9,10,10,11,11,12,12,12-Heptadecafluorododecyl)oxy)carbonyl)-6-oxo-4-phenyl-1,4,5,6-tetrahydropyridin-2-yl)methyl)pyridin-1-ium bromide] |  | 3 ± 0.3 |  |  | 3 ± 1 | 3 ± 0.6 | 3 ± 0.2 | 15 ± 2 | 
CCOC(=O)C1=C(C[n+]2ccc(N(C)C)cc2)NC(C[n+]2ccc(N(C)C)cc2)=C(C(=O)OCC)C1c1ccccc1.[Br-].[Br-] [compound 4, 1,1'-((3,5-Bis(ethoxycarbonyl)-4-phenyl-1,4-dihydropyridine-2,6-diyl)bis(methylene))-bis(4-(dimethylamino)pyridin-1-ium) dibromide] | 608 ± 49 |  | 324 ± 29 | > 1000 |  |  |  |  | LD50 (calculated, NIH3T3) (NIH3T3): > 2000 mg/kg
CCCCCCCCCCCC[N+](C)(C)CC1=C(C(=O)OC)CCC(=O)N1 [compound 36, N-((3-(methyloxycarbonyl)-6-oxo-1,4,5,6-tetrahydropyridin-2-yl)methyl-N,N-dimethyldodecan-1-aminium bromide] |  | 2 ± 0.2 |  |  | 18 ± 3 | 16 ± 3 | 1 ± 0.2 | 63 ± 11 | 
1,1'-((4-(2-(Difluoromethoxy)phenyl)-3,5-bis(methoxycarbonyl)-1,4-dihydropyridine-2,6-diyl)bis(methylene))bis(1-methylpiperidin-1-ium) diperchlorate [compound 9] |  |  |  |  |  |  |  |  | MH-22A IC50 (MTT) (MH-22A (mouse hepatoma) [2]; Table 1): ∗ (∗: not detected); HT-1080 IC50 (MTT) ([4]; Table 1): ∗ (∗: not detected); NIH3T3 IC50 (NR) ([5]; Table 1, 24 h exposure): ∗ (∗: not detected)
CCCCCCCCCCCCCCCCOC(=O)/C=C(\N)C[N+](C)(C)CCCCCCCCCCCC [compound 46, (Z,E)-N-(2-Amino-4-(hexadecyloxy)-4-oxobut-2-en-1-yl)-N,N-dimethyldodecan-1-aminium iodide] |  |  |  |  |  |  |  |  | NIH3T3 LD50 (NIH3T3; Table 3, calculated from NIH3T3 IC50 by regression formula): 637 mg/kg; IC50 in NIH3T3 cell lines [5]: around 30 μg/ml; NIH3T3 IC50 (NR) ([5]; Table 3, 24 h exposure): 34 ± 8 µg/mL
